Test [1] deals with T1, Epidermal growth factor receptor (EGFR) (Homo sapiens, UniProt P00533).
T1 construct: purchased Eurofins (Cerep), fee-for-service 14-531KP
The test is described as follows: Epidermal Growth Factor Receptor (EGFR) enzymatic radiometric assay (Eurofins Cerep 14-531KP). It is filed as biochemical.

Another test concerns the target T2, Mouse recombinant iNOS (Mus musculus, UniProt P29477).
T2 construct: purchased Eurofins (Cerep), fee-for-service 3185; host or cells: Escherichia coli
The test can be described thus: Inducible NOS (iNOS) enzymatic assay (Eurofins Cerep 3185). It is filed as biochemical. As for the experimental part:
In vitro characterization was performed on a fee-for-service basis at Eurofins (www.eurofins.com) if the assay was commercially available. […] DTT) to remove unbound ligand and to reduce nonspecific binding. […] The analysis was carried on in polypropylene 384-well plates incubated at 25 °C with shaking for 1 h in a final volume of 20 μL. […] The kinase concentration in the eluates was measured by qPCR. […] The mixture was incubated for 90 minutes at 37 °C, followed by the addition of Griess reagent. The binding was determined by photometry at 545 nm. […] was used as reference compound. […] A primary screening in duplicated was carried out (30 μM) to determine the target activity. […] The reaction was initiated by the addition of the Mg/ATP mixture. Afte r incubation for 30 minutes at 25 °C, the reaction was terminated by the addition of a solution containing EDTA and biotinylated phosphatidylinositol - 3,4,5-trisphosphate. Detection buffer containing europium -labelled anti - GST monoclonal antibody, GST -tagged GRP1 PH domain and streptavidin -allophycocyanin was added. Following, the plate was read in time-resolved fluorescence mode and the homogeneous time -resolved fluorescence (HTRF) signal was determined according to the formula HTRF = 10000 x (Em665 nm/Em6 20 nm). PI-103 was used as reference compound. […] The binding was determined by Spectrofluorimetric quantitation of rhodamine 123 (Excitation: 485 nm, Emission: 535 nm). 2 -TEDC was used as a reference compound. A primary screening in duplicated was carried out (30 μM) to determine the target S4

The target in the next test is T3, PI3 Kinase (p110b/p85a) (Homo sapiens, UniProt P42338).
T3 construct: purchased Eurofins (Cerep), fee-for-service 14-603KP
The test is described as follows: PI3 Kinase (p110b/p85a) enzymatic HTRF assay (Eurofins Cerep 14-603KP). It counts as biochemical. Conditions: for remaining activity at 30 µM: % kinase activity remaining. As for the experimental part: Additional details on the conduct of in vitro assays are included in Supplementary Information S1. […]
PI3 Kinase (p110b/p85a). The enzyme was incubated in assay buffer containing 10 µM
phosphatidylinositol -4, 5-bispho sphate and Mg/A TP (200 µM). The reaction was initiated by
the addition of the Mg/ATP mixture. Afte r incubation for 30 minutes at 25 °C, the reaction was
terminated by the addition of a solution containing EDTA and biotinylated
phosphatidylinositol - 3,4,5-trisphosphate. Detection buffer containing europium -labelled anti -
GST monoclonal antibody, GST -tagged GRP1 PH domain and streptavidin -allophycocyanin
was added. Following, the plate was read in time-resolved fluorescence mode and the
homogeneous time -resolved fluorescence (HTRF) signal was determined according to the
formula HTRF = 10000 x (Em665 nm/Em6 20 nm). PI-103 was used as reference compound.
A primary screening in duplicated was carried out (30 µM) to determine the target activity. The
result was e xpres sed as a percentage of the positiv e control (i.e. % kinase activity remaining),
and the mean of the replicates was calculated. (Eurofins Cerep assay ID: 14 -603KP) […]
A primary screening in duplicated was carried out (30 µM) to determine the target
A general note: In TR-FRET formats the signal depends on donor and acceptor labels being close together.

In the next test the target is T4, human PDE10A2 (Homo sapiens, UniProt Q9Y233).
T4 construct: purchased Eurofins (Cerep), fee-for-service 4080; host or cells: Sf9
The test can be described thus: Phosphodiesterase 10A2 (PDE10A2) enzymatic assay (Eurofins Cerep 4080). It is filed as biochemical. The protocol:
In vitro characterization was performed on a fee-for-service basis at Eurofins (www.eurofins.com) if the assay was commercially available.
Additional details on the conduct of in vitro assays are included in Supplementary Information S1.
The IC50 value and the standard error of the mean (SEM) were determined by a non-linear, least squares regression analysis using GraphPad Prism Version 9.0.2 for Macintosh (GraphPad Software, San Diego, California USA, https://www.graphpad.com). The dose–response curve was plotted using RStudio Team (2020), v. 1.3.1073 (RStudio, PBC, Boston, MA, http://www.rstudio.com/). […]
(§1) formation of 5’AMP from cAMP using human recombinant enzyme e xpressed in Sf9 cells.
(§2) The test compound was added to a buffer containing 40 mM Tris/HCl (pH 7. 4), 8 mM MgCl2, and 0. 2 µM [3H]cAMP + cAMP. Thereafter, enzyme (about 0. 8 U) wa s added and the mixture incubated for 20 minutes at 25 °C. SPA beads were added and the mixture was maintained at 25 °C for 30 minutes under shaking. [3H]5’AMP was quantified via scintillation counting. The […]
used as standard inhibitory reference compound. A primary screening in duplicated was carried out (30 µM) to determine the target activity.
(100 µM highest concentration and dilution factor in a log-scale) in triplicate for dose-respons e

The target of a further test is T5, human AA2AR (Homo sapiens, UniProt P29274).
T5 construct: host or cells: RBL-2H3
The test can be described thus: Adenosine A2A receptor (AA2AR) calcium flux assay in RBL-2H3 cells (Eurofins Cerep 86-0011P-2409AN). It is filed as cell-based. Conditions: top 30 μM, active if IC50 lower than 30 μM.

Another test deals with PKN2 (human) (Homo sapiens, UniProt Q16513). The test is described as follows: biochemical.
In another test the test system is PDE10A. Also on record: method as in printed at the sentence. Conditions: PDE10A inhibitor, papaverine analog; ref not given; cited from earlier work.
The target in test [2] is T6, Human recombinant 15-ALOX (Homo sapiens, UniProt P16050).
T6 construct: purchased Eurofins (Cerep), fee-for-service 199017; host or cells: E. coli
T6 sequence (P16050 1-662): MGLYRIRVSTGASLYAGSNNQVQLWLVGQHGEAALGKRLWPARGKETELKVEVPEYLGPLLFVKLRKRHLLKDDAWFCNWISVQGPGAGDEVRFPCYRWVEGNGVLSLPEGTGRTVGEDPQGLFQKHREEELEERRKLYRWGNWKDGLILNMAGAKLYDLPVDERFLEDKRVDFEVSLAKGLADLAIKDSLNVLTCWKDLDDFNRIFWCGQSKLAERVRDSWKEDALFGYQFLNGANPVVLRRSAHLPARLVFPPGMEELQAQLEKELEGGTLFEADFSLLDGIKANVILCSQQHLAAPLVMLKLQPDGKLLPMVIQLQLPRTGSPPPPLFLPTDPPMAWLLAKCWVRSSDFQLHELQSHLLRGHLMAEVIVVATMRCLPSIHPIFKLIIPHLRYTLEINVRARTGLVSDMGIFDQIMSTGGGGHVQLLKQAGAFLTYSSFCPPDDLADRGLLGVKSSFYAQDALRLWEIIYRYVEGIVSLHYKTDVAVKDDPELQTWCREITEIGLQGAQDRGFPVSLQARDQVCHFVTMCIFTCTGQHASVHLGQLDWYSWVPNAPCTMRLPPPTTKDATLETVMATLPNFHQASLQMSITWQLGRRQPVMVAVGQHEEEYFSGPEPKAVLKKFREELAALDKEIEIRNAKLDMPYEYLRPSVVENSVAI
The test is described as follows: Arachidonate 15-lipoxygenase (15-ALOX) enzymatic assay (Eurofins Cerep 199017). It is filed as biochemical.

The target of a further test is T7, human ADORA3 (Homo sapiens, UniProt P0DMS8).
T7 construct: host or cells: CHO
T7 sequence (P0DMS8 1-318): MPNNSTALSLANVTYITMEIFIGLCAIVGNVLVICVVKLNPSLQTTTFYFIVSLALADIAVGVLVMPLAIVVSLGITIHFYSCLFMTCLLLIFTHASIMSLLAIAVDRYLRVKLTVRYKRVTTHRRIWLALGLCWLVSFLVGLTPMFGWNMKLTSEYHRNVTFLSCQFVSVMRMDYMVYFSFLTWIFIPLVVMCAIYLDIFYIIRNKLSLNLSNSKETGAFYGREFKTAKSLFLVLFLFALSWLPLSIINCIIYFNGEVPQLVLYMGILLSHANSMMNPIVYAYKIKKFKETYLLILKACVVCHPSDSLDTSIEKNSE
The test can be described thus: Adenosine A3 receptor (ADORA3) functional cAMP HTRF assay in CHO cells (Eurofins Cerep G107). It counts as cell-based. As to conditions: 8 concentrations, top 30 μM, active if IC50 lower than 30 μM. As for the experimental part: In vitro characterization was performed on a fee-for-service basis at Eurofins (www.eurofins.com) if the assay was commercially available. […]
tested at 8 concentrations (100 µM a s the highest concentration and dilution factor in a log-scale) in triplicate for dose-response curve and IC50 determination. (Eurofins Cerep assay ID: […]
as §1, §2
used as standard inhibitory reference compound. […]
Functional activity of ADORA3 was evaluated in CHO cells transfected with human […]
(100 nM IB-MECA) in a first assay, and in a second one with […] (10 nM IB -ME CA) for 20 minutes at 37 °C, and formation of cAMP was determined by homogeneous time resolved fluorescence (HTRF) at lex=337 nm and lem=620 and 665 nm using a microplate reader (Envison, Perkin Elmer). The cAMP concentration was determined by dividing the […]
signal measured at 665 nm by that measured at 620 nm (ratio). […]

[3] abbreviates: tested at 30 μM, active if IC50 lower than 30 μM.

For orientation: IC50 means the concentration that inhibits the measured activity by half. In general, Ki refers to a dissociation constant, usually derived from enzyme kinetics or from competition with a known ligand.

Where two headings read alike, the source gives them in different places.

Sequence of PKN2 (human) (Q16513 whole entry): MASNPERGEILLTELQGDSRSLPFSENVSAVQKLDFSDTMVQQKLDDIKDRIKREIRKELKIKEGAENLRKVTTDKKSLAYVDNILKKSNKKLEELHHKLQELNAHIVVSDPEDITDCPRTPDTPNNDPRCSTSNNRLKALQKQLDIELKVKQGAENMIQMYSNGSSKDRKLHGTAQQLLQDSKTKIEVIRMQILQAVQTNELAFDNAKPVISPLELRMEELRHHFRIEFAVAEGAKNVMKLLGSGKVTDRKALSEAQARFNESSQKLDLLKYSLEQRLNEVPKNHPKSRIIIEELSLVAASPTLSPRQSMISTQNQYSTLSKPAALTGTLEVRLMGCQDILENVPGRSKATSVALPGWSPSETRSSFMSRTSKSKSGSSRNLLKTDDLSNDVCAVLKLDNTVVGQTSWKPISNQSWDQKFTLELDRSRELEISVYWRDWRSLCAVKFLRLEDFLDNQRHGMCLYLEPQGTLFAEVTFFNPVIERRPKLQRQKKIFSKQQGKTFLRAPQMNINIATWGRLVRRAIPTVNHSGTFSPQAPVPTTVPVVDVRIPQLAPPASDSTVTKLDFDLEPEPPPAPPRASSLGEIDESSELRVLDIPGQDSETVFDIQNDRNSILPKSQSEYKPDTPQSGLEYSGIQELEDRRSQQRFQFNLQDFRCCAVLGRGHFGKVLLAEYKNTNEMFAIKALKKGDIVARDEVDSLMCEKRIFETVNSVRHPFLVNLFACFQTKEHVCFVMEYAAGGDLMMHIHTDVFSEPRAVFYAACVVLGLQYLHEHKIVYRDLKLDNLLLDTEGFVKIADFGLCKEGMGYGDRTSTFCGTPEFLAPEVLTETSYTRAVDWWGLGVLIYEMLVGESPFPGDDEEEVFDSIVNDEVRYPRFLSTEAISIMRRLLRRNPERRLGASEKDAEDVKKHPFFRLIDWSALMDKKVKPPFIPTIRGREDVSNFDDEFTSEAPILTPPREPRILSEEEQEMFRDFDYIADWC
T4 sequence (Q9Y233 267-1055): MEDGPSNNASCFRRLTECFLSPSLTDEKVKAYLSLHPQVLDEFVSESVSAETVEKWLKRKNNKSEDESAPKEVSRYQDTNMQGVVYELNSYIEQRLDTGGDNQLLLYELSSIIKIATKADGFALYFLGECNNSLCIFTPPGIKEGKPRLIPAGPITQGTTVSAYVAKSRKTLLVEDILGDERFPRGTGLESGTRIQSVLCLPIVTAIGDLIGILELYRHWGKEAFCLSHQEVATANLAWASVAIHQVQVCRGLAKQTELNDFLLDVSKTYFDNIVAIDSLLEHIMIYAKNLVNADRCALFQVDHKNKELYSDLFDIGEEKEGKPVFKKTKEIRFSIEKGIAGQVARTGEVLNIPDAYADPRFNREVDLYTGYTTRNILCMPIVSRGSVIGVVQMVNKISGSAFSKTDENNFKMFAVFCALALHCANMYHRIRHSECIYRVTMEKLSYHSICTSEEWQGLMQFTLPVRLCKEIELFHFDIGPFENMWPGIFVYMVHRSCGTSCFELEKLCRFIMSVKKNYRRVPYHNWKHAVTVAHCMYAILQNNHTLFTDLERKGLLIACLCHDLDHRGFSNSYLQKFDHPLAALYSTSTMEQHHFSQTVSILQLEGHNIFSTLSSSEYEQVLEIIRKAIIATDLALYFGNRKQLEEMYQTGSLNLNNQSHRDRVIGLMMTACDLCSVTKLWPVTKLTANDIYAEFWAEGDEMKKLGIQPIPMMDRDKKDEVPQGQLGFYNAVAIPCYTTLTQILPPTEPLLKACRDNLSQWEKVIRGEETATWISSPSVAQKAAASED
T3 sequence (P42338 whole entry): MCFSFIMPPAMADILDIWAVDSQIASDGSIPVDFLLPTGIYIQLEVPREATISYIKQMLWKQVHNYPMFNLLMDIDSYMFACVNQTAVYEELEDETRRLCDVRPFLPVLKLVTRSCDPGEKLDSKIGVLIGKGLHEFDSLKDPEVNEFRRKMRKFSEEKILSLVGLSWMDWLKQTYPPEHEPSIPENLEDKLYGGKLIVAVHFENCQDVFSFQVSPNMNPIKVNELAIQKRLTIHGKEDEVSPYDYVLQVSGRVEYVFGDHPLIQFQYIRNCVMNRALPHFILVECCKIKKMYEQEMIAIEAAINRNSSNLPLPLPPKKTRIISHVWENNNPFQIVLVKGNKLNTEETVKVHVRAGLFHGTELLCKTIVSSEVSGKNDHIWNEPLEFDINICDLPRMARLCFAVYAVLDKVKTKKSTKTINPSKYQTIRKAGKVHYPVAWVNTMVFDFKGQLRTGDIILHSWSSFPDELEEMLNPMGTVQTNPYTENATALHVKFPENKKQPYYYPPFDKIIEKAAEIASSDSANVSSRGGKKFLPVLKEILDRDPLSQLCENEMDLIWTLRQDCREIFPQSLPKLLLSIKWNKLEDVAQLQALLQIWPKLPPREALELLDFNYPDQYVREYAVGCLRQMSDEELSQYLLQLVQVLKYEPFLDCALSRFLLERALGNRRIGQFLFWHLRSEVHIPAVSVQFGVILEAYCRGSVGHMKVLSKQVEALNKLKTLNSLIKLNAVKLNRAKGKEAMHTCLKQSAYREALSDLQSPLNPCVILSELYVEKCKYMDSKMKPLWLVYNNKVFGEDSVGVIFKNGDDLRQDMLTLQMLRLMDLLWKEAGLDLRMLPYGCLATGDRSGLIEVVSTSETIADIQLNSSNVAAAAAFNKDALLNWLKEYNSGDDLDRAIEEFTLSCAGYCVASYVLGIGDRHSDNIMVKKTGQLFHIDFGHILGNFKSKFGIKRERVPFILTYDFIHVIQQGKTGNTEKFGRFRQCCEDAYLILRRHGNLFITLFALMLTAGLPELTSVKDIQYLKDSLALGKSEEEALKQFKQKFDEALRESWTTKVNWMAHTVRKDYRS
T3 sequence (P27986 whole entry partner): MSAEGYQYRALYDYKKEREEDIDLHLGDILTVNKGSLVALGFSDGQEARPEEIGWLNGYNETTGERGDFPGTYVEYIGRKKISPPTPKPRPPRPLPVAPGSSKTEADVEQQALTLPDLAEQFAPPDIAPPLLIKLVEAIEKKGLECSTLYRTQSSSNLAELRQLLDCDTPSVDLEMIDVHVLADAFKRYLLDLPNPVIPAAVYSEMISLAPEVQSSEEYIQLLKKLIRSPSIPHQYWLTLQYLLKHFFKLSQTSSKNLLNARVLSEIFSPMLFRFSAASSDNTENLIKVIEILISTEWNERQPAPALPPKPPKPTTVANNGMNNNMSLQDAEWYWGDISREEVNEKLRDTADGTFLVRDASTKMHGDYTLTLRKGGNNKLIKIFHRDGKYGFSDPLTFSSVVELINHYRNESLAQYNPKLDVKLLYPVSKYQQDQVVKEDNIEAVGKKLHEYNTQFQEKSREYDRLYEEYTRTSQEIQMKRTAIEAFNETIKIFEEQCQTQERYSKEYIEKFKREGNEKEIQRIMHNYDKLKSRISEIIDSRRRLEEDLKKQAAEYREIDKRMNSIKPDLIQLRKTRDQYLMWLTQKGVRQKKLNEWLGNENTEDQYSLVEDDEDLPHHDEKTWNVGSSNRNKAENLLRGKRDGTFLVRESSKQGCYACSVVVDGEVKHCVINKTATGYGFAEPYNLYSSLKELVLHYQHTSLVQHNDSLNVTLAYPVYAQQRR
T5 sequence (P29274 whole entry): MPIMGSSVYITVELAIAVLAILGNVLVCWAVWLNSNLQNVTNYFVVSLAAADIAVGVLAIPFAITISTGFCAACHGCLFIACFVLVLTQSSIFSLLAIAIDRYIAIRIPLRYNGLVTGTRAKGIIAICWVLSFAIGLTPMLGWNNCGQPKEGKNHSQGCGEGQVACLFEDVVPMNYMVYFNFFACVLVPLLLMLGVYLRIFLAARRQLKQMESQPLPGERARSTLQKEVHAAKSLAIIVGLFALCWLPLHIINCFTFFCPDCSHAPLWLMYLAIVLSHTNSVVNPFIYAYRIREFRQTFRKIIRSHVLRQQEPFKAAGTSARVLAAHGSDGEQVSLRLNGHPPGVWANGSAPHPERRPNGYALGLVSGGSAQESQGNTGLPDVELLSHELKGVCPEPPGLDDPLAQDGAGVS

With `CCS(=O)(=O)N1CC(CC#N)(n2cc(-c3ncnc4[nH]ccc34)cn2)C1` [Baricitinib], the inhibition at 30 µM came to 21% in test [1] (30 µM, mean of n=2); 5% on Mouse recombinant iNOS (mean of n=2, read-out: % inhibition (mean) activity, iNOS); 6% on Mouse recombinant iNOS (replicate 1, read-out: % inhibition of control activity (1st), iNOS); 4% on Mouse recombinant iNOS (replicate 2, read-out: % inhibition of control activity (2nd), iNOS); 4% on PI3 Kinase (p110b/p85a) (30 µM, mean of n=2, read-out: % inhibition (mean) activity, PI3Kbeta (p110b/p85a)); 44.8% at human PDE10A2 (mean of n=2, read-out: % inhibition (mean) activity, PDE10A2). The inhibition at 30 µM on human PDE10A2 (replicate 1, read-out: % inhibition of control activity (1st), PDE10A2) turned out to be 45.5%; on human PDE10A2 (replicate 2, read-out: % inhibition of control activity (2nd), PDE10A2), 44%; at PKN2 (human) (read-out: % inhibition (mean) activity, PRK2) it was 98%. Moreover, the “IC50 (μM), EGFR” value in test [1] (setting [3]) is given as “Inactive”. Also, the “IC50 (μM), iNOS” value on Mouse recombinant iNOS (setting [3]) is listed as “Inactive”. For the same molecule, the remaining activity at 30 µM at PI3 Kinase (p110b/p85a) (30 µM, replicate 1, read-out: % inhibition of control activity (1st), measured as % of positive control activity, PI3Kbeta (p110b/p85a)) was 92%; at PI3 Kinase (p110b/p85a) (30 µM, replicate 2, read-out: % inhibition of control activity (2nd), measured as % of positive control activity, PI3Kbeta (p110b/p85a)) it was 99%; on PKN2 (human) (read-out: % inhibition of control activity (1st), measured as % of positive control activity, PRK2) it was 1%; at PKN2 (human) (read-out: % inhibition of control activity (2nd), measured as % of positive control activity, PRK2), 2%. Besides, the “IC50 (μM), PI3 Kinase (p110b/p85a)” value against PI3 Kinase (p110b/p85a) (setting [3]) is “Inactive”. Besides, the IC50 on human PDE10A2 (dose–response, 8 concentrations, top 100 μM, triplicate, mean ± SEM) came to 28 ± 2 µM. The Ki on human PDE10A2 (estimated from experimental IC50, Cheng and Prusoff) is 6.1 µM. The “IC50 (μM), AA2AR, antagonistic effect” value at human AA2AR (antagonistic effect) is recorded as “Inactive”.
For the molecule `COc1cc2ncnc(N3CC[C@@H](Oc4cnc5ccccc5n4)C3)c2cc1OC` [PQ-10], in the test with PDE10A, the IC50 was 6 µM.
`C[C@@H]1CCN(C(=O)CC#N)C[C@@H]1N(C)c1ncnc2[nH]ccc12` [Tofacitinib]: the “IC50 (μM), 15-ALOX” value in [2] (30 μM screen, follow-up 8 concentrations top 100 μM, triplicate, active if IC50 lower than 30 μM) is “Inactive”. Besides, the inhibition at 30 µM in [2] (mean of n=2, read-out: % inhibition (mean) activity, 15-LOX-1) is 27%; in test [2] (replicate 1, read-out: % inhibition of control activity (1st), 15-LOX-1), 19.3%; in test [2] (replicate 2, read-out: % inhibition of control activity (2nd), 15-LOX-1) it was 34%. Moreover, the “IC50 (μM), ADORA3, antagonistic and agonistic effect” value on human ADORA3 is reported as “Inactive”. In addition, the “IC50 (μM), AA2AR, agonistic effect” value at human AA2AR (agonistic effect (footnote c)) is reported as “Inactive”.
